Reference: patent US5821258A, “Phenylbenzimidazole derivatives” (priority 1994, dated 1998)
In brackets after ≈: the same amount, converted by molar mass. Counter-ions that a name gives are not always drawn.

How the values were obtained:
B16 melanoma cells = experiment: in vitro inhibitory activity on tumor cell growth, B16 melanoma cells (Test Example 2); assay type: cell-based; settings: B16 mouse melanoma cells, 37° C., 3 days, 5% CO2, concentration for 50% growth inhibitory effect
Procedure: The anticancer activity of each compound will be described. […] This test was carried out by measuring an in vitro inhibitory activity on tumor cell growth. That is to say, the B16 melanoma cells of a mouse were planted on a culture plate having 96 cells, and a compound was then added after one day and the cells were cultured at 37° C. for 3 days in 5% CO2. Next, a compound concentration (IC50) necessary to accomplish a 50% growth inhibitory effect was determined in accordance with a procedure described in Cancer. Res., Vol. 48, p. 589-601 (1988). The unit of the drug concentration was μg/ml. The result of distamycin is also simultaneously shown as a comparative example.

poly d(A-T)-d(A-T) = experiment: Linkage to DNA, Tm value comparison with and without compound (Test Example 1); assay type: binding; settings: poly d(A-T)-d(A-T) in buffer; difference from Tm of the DNA alone
Procedure: Investigation was made on the linkage of each compound to DNA. The test was carried out by comparing a Tm value in the case that the compound was added to the DNA solution with a Tm value in the case that no compound was added thereto.
That is to say, poly d(A-T)-d(A-T) was used as the DNA. This DNA was dissolved in a buffer solution and the compound was further added thereto, and the Tm value was then measured. On the other hand, the Tm of the DNA alone was measured, and a difference (ΔTm) was then calculated. For the measurement, a U-3200 model spectrophotometer made by Hitachi, Ltd. was used, and for the control of temperature, SPR-10 model made by Hitachi, Ltd. was used.

[1] = tested on: mouse colon cancer cells of Colon 26; experiment: Anti-tumor test in mice implanted with Colon 26 cells, tumor weight on 15th day (Test Example 3); assay type: in vivo; settings: tail vein on 1st day, Colon 26 s.c. in female CDF1 mouse, tumor weight on 15th day vs control 100%
Procedure: A cell floating solution having 1×10^7 mouse colon cancer cells of Colon 26 per ml of HBSS (Hanks' Balanced Salt Solution) was prepared. Next, 0.1 ml of this cell floating solution was implanted in the side abdomen hypodermis of a female CDFl mouse (0 day). On the day after the tumor implantation (1st day), the weight of the mouse was measured, and a solution of a compound (a 5% glucose solution containing 5% Tween 80) was administered into the tail vein of the mouse. On the 15th day, the tumor was extracted, and its weight was then measured.
An average tumor weight ratio of each experimental sample was calculated as a T/C value on the assumption that the average tumor weight ratio of a control to which any compound was not administered was 100%.
The T/C values correspond to compound numbers, respectively, and each value in the parentheses represents the concentration of the drug at the time when its T/C value was obtained.

O=C(CCN1CCOCC1)Nc1cccc(-c2nc3cc(C(=O)Nc4ccc(N(CCCl)CCCl)cc4)ccc3[nH]2)c1 [Compound 2051, 1H-2-[3-[(3-morpholinopropionyl)amino]phenyl]benzimidazole-5-[N-[4-[N,N-bis(2-chloroethyl)amino]phenyl]]carboxyamide hydrochloride]
IC50 (anti-tumor activity) (B16 melanoma cells): 0.49 µg/mL

N=C(N)NCC(=O)Nc1ccc(-c2nc3cc(C(=O)Nc4cccc(N(CCCl)CCCl)c4)ccc3[nH]2)cc1 [Compound 1010, 1H-2-[4-(guanidinoacetylamino)phenyl]benzimidazole-5-[N-[3-[N,N-bis(2-chloroethyl)amino]phenyl]]carboxyamide]
IC50 (anti-tumor activity) (B16 melanoma cells): 3.19 µg/mL (≈ 5.62 µM)

O=C(CCN1CCOCC1)Nc1cccc(-c2nc3cc(C(=O)Nc4ccc(N(CCCl)CCCl)c(Cl)c4)ccc3[nH]2)c1 [Compound 2054, 1H-2-[3-[(3-morpholinopropionyl)amino]phenyl]benzimidazole-5-[N-[3-chloro-4-[N-bis(2-chloroethyl)amino]phenyl]]carboxyamide hydrochloride]
IC50 (anti-tumor activity) (B16 melanoma cells): 0.41 µg/mL

N=C(N)NCC(=O)Nc1cccc(-c2nc3cc(C(=O)Nc4ccc(N(CCCl)CCCl)cc4)ccc3[nH]2)c1 [Compound 2001, 1H-2-[3-(guanidinoacetylamino)phenyl]benzimidazole-5-[N-[4-[N,N-bis(2-chloroethyl)amino)phenyl]]carboxyamide dihydrochloride]
ΔTm (poly d(A-T)-d(A-T)): 14 °C | IC50 (anti-tumor activity) (B16 melanoma cells): 0.82 µg/mL | T/C ([1]; 30 mg/kg): 13%

N=C(N)NCC(=O)Nc1cccc(-c2nc3cc(C(=O)Nc4ccc(N(CCCl)CCCl)c(Cl)c4)ccc3[nH]2)c1 [Compound 2006, 1H-2-[3-(guanidinoacetylamino)phenyl]benzimidazole-5-[N-[3-chloro-4-[N,N-bis(2-chloroethyl)amino]phenyl]]carboxyamide dihydrochloride]
IC50 (anti-tumor activity) (B16 melanoma cells): 0.65 µg/mL | T/C ([1]; 10 mg/kg): 21%

CN(C)CCCC(=O)Nc1cccc(-c2nc3cc(C(=O)Nc4ccc(N(CCCl)CCCl)cc4)ccc3[nH]2)c1 [Compound 2031, 1H-2-[3-[[4-(dimethylamino)butyryl]amino]phenyl]benzimidazole-5-[N-[4-[N,N-bis(2-chloroethyl)amino)phenyl]]carboxyamide dihydrochloride]
IC50 (anti-tumor activity) (B16 melanoma cells): 1.56 µg/mL

N=C(N)CCNC(=O)c1ccc2[nH]c(-c3cccc(NC(=O)CCCc4ccc(N(CCCl)CCCl)cc4)c3)nc2c1 [Compound 47, 1H-2-[3-[[4-[4-[N,N-bis(2-chloroethyl)amino]phenyl]butyryl]amino]phenyl]benzimidazole-5-[N-(2-amidinoethyl]carboxyamide hydrochloride]
IC50 (anti-tumor activity) (B16 melanoma cells): 0.38 µg/mL

Cc1cc(NC(=O)c2ccc3[nH]c(-c4cccc(NC(=O)CCN5CCOCC5)c4)nc3c2)ccc1N(CCCl)CCCl [Compound 2053, 1H-2-[3-[(3-morpholinopropionyl)amino]phenyl]benzimidazole-5-[N-[4-[N,N-bis(2-chloroethyl)]amino-3-methyl]phenyl]carboxyamide hydrochloride]
IC50 (anti-tumor activity) (B16 melanoma cells): 0.33 µg/mL

Cc1cc(NC(=O)c2ccc3[nH]c(-c4cccc(NC(=O)Cc5cccnc5)c4)nc3c2)ccc1N(CCCl)CCCl [Compound 2063, 1H-2-[3-(3-pyridylacetylamino)phenyl]benzimidazole-5-[N-[3-methyl-4-[N,N-bis(2-chloroethyl)amino]phenyl]]carboxyamide]
IC50 (anti-tumor activity) (B16 melanoma cells): 3.48 µg/mL (≈ 5.79 µM)

COc1cccc2c1C(=O)c1c(O)c3c(c(O)c1C2=O)C[C@@](O)(C(=O)CO)C[C@@H]3O[C@H]1C[C@H](N)[C@H](O)[C@H](C)O1 [Adriamycin, adriamycin, reference compound]
T/C ([1]; 20 mg/kg): 29%

C[S+](C)CCC(=O)Nc1cccc(-c2nc3cc(C(=O)Nc4ccc(N(CCCl)CCCl)cc4)ccc3[nH]2)c1 [Compound 2041, 2-[N-[3-[5-[N-[4-[N,N-bis(2-chloroethyl)amino]phenylnyl]carbamoyl]-1H-benzimidazole-2-yl]phenyl]]carbamoylethyl-dimethylsulfonium iodide]
IC50 (anti-tumor activity) (B16 melanoma cells): 0.37 µg/mL

Cc1cc(NC(=O)c2ccc3[nH]c(-c4cccc(NC(=O)CNC(=N)N)c4)nc3c2)ccc1N(CCCl)CCCl [Compound 2004, 1H-2-[3-(guanidinoacetylamino)phenyl]benzimidazole-5-[N-[3-methyl-4-[N,N-bis(2-chloroethyl)amino]phenyl]]carboxyamide dihydrochloride]
IC50 (anti-tumor activity) (B16 melanoma cells): 0.53 µg/mL

Cc1cc(NC(=O)c2ccc3[nH]c(-c4cccc(NC(=O)CCCNC(=N)N)c4)nc3c2)ccc1N(CCCl)CCCl [Compound 2014, 1H-2-[3-[[4-(guanidino)butyryl]amino]phenyl]benzimidazole-5-[N-[3-methyl-4-[N,N-bis(2-chloroethyl)amino]phenyl]]carboxyamide dihydrochloride]
IC50 (anti-tumor activity) (B16 melanoma cells): 1.18 µg/mL

CN(C)CCCNC(=O)c1ccc2[nH]c(-c3ccc(NC(=O)CCCc4ccc(N(CCCl)CCCl)cc4)cc3)nc2c1 [Compound 29, 1H-2-[4-[[4-[4-[N,N-bis(2-chloroethyl)amino]phenyl]butyryl]amino]phenyl]benzimidazole-5-[N-[3-(dimethylamino)propyl]]carboxyamide]
IC50 (anti-tumor activity) (B16 melanoma cells): 3.05 µg/mL (≈ 4.89 µM)

Cc1cc(NC(=O)c2ccc3[nH]c(-c4cccc(NC(=O)CC[S+](C)C)c4)nc3c2)ccc1N(CCCl)CCCl.[I-] [Compound 2044, 2-[N-[3-[5-[N-[3-methyl-4-[N,N-bis(2-chloroethyl)amino]phenyl]carbamoyl]-1Hbenzimidazole-2-yl]phenyl]]carbamoylethyl-dimethylsulfonium iodide]
IC50 (anti-tumor activity) (B16 melanoma cells): 0.72 µg/mL

C[S+](C)CCC(=O)Nc1cccc(-c2nc3cc(C(=O)Nc4ccc(N(CCCl)CCCl)c(Cl)c4)ccc3[nH]2)c1 [Compound 2046, 2-[N-[3-[5-[N-[3-chloro-4-[N,N-bis(2-chloroethyl)amino]phenyl]carbamoyl]-1H-benzimidazole-2-yl]phenyl]carbamoylethyl]dimethylsulfonium iodide]
IC50 (anti-tumor activity) (B16 melanoma cells): 0.39 µg/mL

Cn1cc(NC(=O)c2cc(NC(=O)c3cc(NC=O)cn3C)cn2C)cc1C(=O)NCCC(=N)N [Distamycin, distamycin, reference compound]
IC50 (B16 melanoma cells; 72 h, read-out: IC50 (anti-tumor activity)): 36 µg/mL (≈ 74.8 µM)

N=C(N)NCCCC(=O)Nc1cccc(-c2nc3cc(C(=O)Nc4ccc(N(CCCl)CCCl)c(Cl)c4)ccc3[nH]2)c1 [Compound 2016, 1H-2-[3-[[4-(guanidino)butyryl]amino]phenyl]benzimidazole-5-[N-[3-chloro-4-[N,N-bis(2-chloroethyl)amino]phenyl]]carboxyamide dihydrochloride]
IC50 (anti-tumor activity) (B16 melanoma cells): 2.08 µg/mL

N=C(N)NCC(=O)Nc1ccc(-c2nc3cc(C(=O)Nc4ccc(N(CCCl)CCCl)cc4)ccc3[nH]2)cc1 [Compound 1001, 1H-2-[4-(guanidinoacetylamino)phenyl]benzimidazole-5-[N-[4-[N,N-bis(2-chloroethyl)amino)phenyl]]carboxyamide dihydrochloride]
IC50 (anti-tumor activity) (B16 melanoma cells): 0.36 µg/mL

N=C(N)NCCCC(=O)Nc1cccc(-c2nc3cc(C(=O)Nc4ccc(N(CCCl)CCCl)cc4)ccc3[nH]2)c1 [Compound 2011, 1H-2-[3-[4-(guanidino)butyryl]amino]phenyl]benzimidazole-5-[N-[4-[N,N-bis(2-chloroethyl)amino)phenyl]]carboxyamide dihydrochloride]
IC50 (anti-tumor activity) (B16 melanoma cells): 0.97 µg/mL

N=C(N)CCNC(=O)c1ccc2[nH]c(-c3ccc(NC(=O)CCCc4ccc(N(CCCl)CCCl)cc4)cc3)nc2c1 [Compound 2, 1H-2-[4-[[4-[4-[N,N-bis(2-chloroethyl)amino]phenyl]butyryl]amino]phenyl]benzimidazole-5-[N-(2-amidinoethyl]carboxyamide hydrochloride]
IC50 (anti-tumor activity) (B16 melanoma cells): 0.58 µg/mL
